Consider six molecules from ChEMBL document CHEMBL1149627, “Erythrocarpines A-E, new cytotoxic limonoids from Chisocheton erythrocarpus” (Bioorg Med Chem, 2007).

Molecules are shown by their SMILES. Values after ≈ are worked out from the molar mass of the structure shown.

For the assay, the system named is P388. Kind of assay: Cytotoxicity against mouse P388 cells by MTT assay. Type of assay: functional, cell-based. Background: Tetrazolium assays rely on reduction of a dye to a coloured formazan, in cell work by metabolically active cells.

With `COC(=O)C[C@H]1C(C)(C)[C@H](OC(=O)c2ccccc2)[C@@H]2C=C3C4=CC(=O)O[C@@H](c5ccoc5)[C@]4(C)CC[C@@H]3[C@@]1(C)C2=O` [ERYTHROCARPINE A], the IC50 was found to be 2 µg/mL (≈ 3.49 µM).

In turn, `COC(=O)C[C@H]1C(C)(C)[C@H](OC(=O)c2ccccc2)[C@@H]2C=C3[C@H](CC[C@@]4(C)[C@H](c5ccoc5)OC(=O)C[C@@]34O)[C@@]1(C)C2=O` [ERYTHROCARPINE B] showed an IC50 of 6 µg/mL (≈ 10.2 µM).

On to `COC(=O)C[C@H]1C(C)(C)[C@H](OC(=O)/C=C/c2ccccc2)[C@@H]2C=C3[C@H](CC[C@@]4(C)[C@H](c5ccoc5)OC(=O)C[C@@]34O)[C@@]1(C)C2=O` [ERYTHROCARPINE C], for which the IC50 was found to be 9.9 µg/mL (≈ 16.1 µM).

Molecule `COC(=O)C[C@H]1[C@@]2(C)CO[C@]3(O)[C@@H](C=C4C5=CC(=O)O[C@@H](c6ccoc6)[C@]5(C)CC[C@@H]4[C@]13C)[C@H]2OC(=O)/C=C/c1ccccc1` [ERYTHROCARPINE D] displayed an IC50 of 10 µg/mL (≈ 16.3 µM).

Take `COC(=O)C[C@H]1[C@@]2(C)CO[C@]3(O)[C@@H](C=C4[C@H](CC[C@@]5(C)[C@H](c6ccoc6)OC(=O)C[C@@]45O)[C@]13C)[C@H]2OC(=O)/C=C/c1ccccc1` [ERYTHROCARPINE E]: 16 µg/mL (≈ 25.3 µM) corresponded to half-maximal inhibition (IC50). Compared with the last molecule, the IC50 is about 1.6-fold higher.

As to `CO[C@@]12[C@H](COC(N)=O)C3=C(C(=O)C(C)=C(N)C3=O)N1C[C@@H]1N[C@@H]12` [MITOMYCIN], half-maximal inhibition (IC50) was put at 0.15 µg/mL (≈ 0.449 µM).

Usually IC50 stands for the concentration at which inhibition is half-maximal.
